Source: PMC7358525, “Characterization of PF-6142, a Novel, Non-Catecholamine Dopamine Receptor D1 Agonist, in Murine and Nonhuman Primate Models of Dopaminergic Activation” (Frontiers in Pharmacology, 2020)

Columns and labels:
Assay type in all cases: in vivo
[1] = system: ACh levels in the rat PFC; experiment: Prefrontal cortex acetylcholine levels via microdialysis, rat
Text: Adult male Sprague-Dawley rats (280–360 g) were obtained from Charles-River Laboratories, Raleigh, NC and male C57BL/6J DRD1a WT and D1 DA receptor knockout mice (DRD1a-905781) were obtained from The Jackson Laboratories (Bar Harbor, ME). Animals were housed on a 12-h light/dark cycle with free access to food and water and allowed to acclimate for at least 5 d after arrival. Aseptic technique was used during the surgical procedure in order to prevent infection. On the day of the procedure animals were anesthetized with isoflurane (4%) and their heads shaved. The animals were then placed into a Kopf stereotaxic frame, the surgical area disinfected by swabbing with Provodine solution, and the area isolated with a sterile surgical drape. Anesthesia was maintained with isoflurane (2.5%–3%) delivered through a nose cone using a Univentor 400 anesthesia unit. Animals were given a 0.1 ml subcutaneous (s.c.) injection of Metacam (NSAID, meloxicam, 5 mg/ml, Boehringer Ingelheim) as a post-operative analgesic. Marcaine (bupivacaine, 0.5%, Hospira, Lake Forest, IL), a long acting local anesthetic, was administered s.c. at the surgical area to minimize pain and discomfort. […]
(§1) For conventional analysis, ACh was analyzed by high performance liquid chromatography (HPLC) utilizing a modification of the BAS ACh-choline assay kit (BAS part # MF-8910). […]

[2] = system: acetylcholine levels in the PFC of WT and D1 KO mice; experiment: Prefrontal cortex acetylcholine levels via microdialysis, WT and D1 KO mouse; details: 10 mg/kg SC
Text: Adult male Sprague-Dawley rats (280–360 g) were obtained from Charles-River Laboratories, Raleigh, NC and male C57BL/6J DRD1a WT and D1 DA receptor knockout mice (DRD1a-905781) were obtained from The Jackson Laboratories (Bar Harbor, ME). Animals were housed on a 12-h light/dark cycle with free access to food and water and allowed to acclimate for at least 5 d after arrival. Aseptic technique was used during the surgical procedure in order to prevent infection. On the day of the procedure animals were anesthetized with isoflurane (4%) and their heads shaved. The animals were then placed into a Kopf stereotaxic frame, the surgical area disinfected by swabbing with Provodine solution, and the area isolated with a sterile surgical drape. Anesthesia was maintained with isoflurane (2.5%–3%) delivered through a nose cone using a Univentor 400 anesthesia unit. Animals were given a 0.1 ml subcutaneous (s.c.) injection of Metacam (NSAID, meloxicam, 5 mg/ml, Boehringer Ingelheim) as a post-operative analgesic. Marcaine (bupivacaine, 0.5%, Hospira, Lake Forest, IL), a long acting local anesthetic, was administered s.c. at the surgical area to minimize pain and discomfort.
A 1.5–2 cm incision was made along the midline of the skull, beginning from a point just behind the eyes and running posterior. The skin was retracted with hemostats and the skull was further exposed using blunt dissection with cotton swabs. Bleeding capillaries were cauterized, and the skull dried with a sterile gauze sponge.
A microdialysis guide cannula [Bioanalytical Systems Inc (BAS), West Lafayette, IN, part # MD-2251] was placed into a guide holder on the stereotaxic frame and positioned over “Bregma”. The guide cannula was positioned over the PFC (A-P, +3.2 mm; M-L, +0.7 mm, left, relative to bregma) and the location marked on the skull. Using a 0.7 mm burr, a hole was made in the skull at the cannula position. […]
as §1

mouse locomotor activity = experiment: Mouse locomotor activity (LMA)
Description: Locomotor activity data were measured by an automated infrared photo-beam system in sound attenuating chambers controlled by Versamax® software, provided by Accuscan Instruments Inc. (Columbus, Ohio), which quantified beam breaks similar to the methods used previously ([Xu et al., 2000]). To test D1 receptor selectivity in a pharmacologic model, C57BL/6J mice were habituated to the apparatus for 90 min, followed by pretreatment with vehicle or SCH-23390 (0.01, 0.032, 0.1 0.32, s.c.) and returned to the apparatus for 30 min. […] Data were compared against the vehicle group using a repeated measures one-way ANOVA with a Dunnett’s post-test. To test D1 receptor selectivity in a genetic model, DRD1a WT and knockout mice (D1 KO) were habituated to the apparatus for 90 min, pretreated with vehicle or SCH-23390 (0.032 mg/kg, s.c.) and returned to the apparatus for 30 min. […] Data were compared within genotype using a two-way ANOVA with a Dunnett’s post-hoc test versus vehicle treated group.

[3] = Plasma exposure (PK), rat; details: 10 mg/kg SC, 1.5 h
Description: Across the set of experiments, PK was either collected from satellite animals or in separate, dedicated studies. In addition to plasma PK, exposures were obtained in brain tissue for rat and mouse, and plasma protein binding and brain tissue binding were measured. Using the measured exposures, partitioning, and binding parameters, and the […]

Cc1cc(Oc2nccc3occc23)ccc1-c1c(C)ncc2nccn12 [PF-6142]
PF-6142 mediated increase in cortical ACh after repeated dosing (AUC 75-180 min, day 5) ([1]; 10 mg/kg SC for five consecutive days): maintained
cortical ACh levels, time course ([1]; PF-6142 10 mg/kg SC acute on day 5 after subchronic vehicle, vs 5 d vehicle): increased cortical ACh levels
PFC ACh levels vs vehicle (AUC 75-180 min) ([2]; D1 KO mice): not in the KO group
PFC ACh levels vs vehicle (AUC 75-180 min) ([2]; WT mice): increased ACh levels
horizontal activity, five consecutive days of dosing (mouse locomotor activity; 1.78 mg/kg daily): did not significantly increase horizontal activity
horizontal activity, five consecutive days of dosing (mouse locomotor activity; 3.2 mg/kg s.c. daily (p=0.0311 day 4, p=0.0309 day 5)): only increased activity significantly on days 4 and 5
locomotor activity, five consecutive days of dosing (mouse locomotor activity; 10 mg/kg s.c. daily, CD-1 mice): increased locomotor activity
locomotor activity (mouse locomotor activity; D1 KO mice, 10 mg/kg s.c. (p=0.6731)): did not show hyperactivity
locomotor activity (mouse locomotor activity; WT mice, 10 mg/kg s.c.): increased activity in the WT mice
horizontal activity (beam breaks, 2 h) (mouse locomotor activity; acute 0.32-10 mg/kg s.c., significant at 10 mg/kg (p<0.0001)): dose-dependently increased horizontal activity
PF-6142 plasma concentration [3]: 1260 ng/mL
